Experimental data reported in US20250262336A1, “[177LU] LUTETIUM-PSMA I&T COMPOSITION AND DOSIMETRY, KIT, METHOD OF MAKING, AND METHOD OF USING THEREOF” (Curium US LLC, priority 2023, published 2025).

Assay: Cycle 1 normal organ dosimetry (SPECT/CT, TIACs, OLINDA 2.2.3)
Assay type: in vivo, human
Conditions: for Absorbed Dose, Mean / Absorbed Dose, max / Absorbed Dose, median / Absorbed Dose, min: Cycle 1, n = 26; for Absorbed Dose in Cycle 1, Mean / Absorbed Dose in Cycle 1, max / Absorbed Dose in Cycle 1, min: N = 16 patients imaged at cycle 1 and 3
Method: This Example presents the biodistribution, dosimetry, and pharmacokinetics (PK) results of a PK/Dosimetry sub-study performed as part of a Phase III trial. Twenty-seven (27) patients were administered a target activity of 7.4±10% GBq of ^177Lu-PSMA-I&T and underwent single photon emission computed tomography (SPECT)/computed tomography (CT) imaging at four timepoints (4 h, 24 h, 48 h, and 168 h). Image data was analysed to compute time-activity curves (TACs) and subsequently time-integrated activity coefficients (TIACs) in each organ of interest and in organs showing appreciable and meaningful ^177Lu-PSMA-I&T activity. Organ Level Internal Dose Assessment (OLINDA 2.2.3) was used to compute organ and whole body absorbed radiation doses for each patient.
All participating sites underwent a rigorous site setup process during which all dose calibrators, scanners, and gamma counters used in the sub-study were calibrated. Sites were allowed to enroll patients in the sub-study only after the completion and approval of all site setup processes by Invicro. Patients underwent SPECT/CT imaging, with anatomical coverage typically extending from the salivary glands to the pelvis, following the administration of a targeted 7.4±10% GBq of ^177Lu-PSMA-I&T at cycle 1. SPECT/CT imaging was performed at four timepoints: 4 h, 24 h, 48 h, and 168 h post-injection. Additionally, a subset of patients imaged at Cycle 1 (16 out of 27), were also imaged at Cycle 3 (Table 2).
In general, raw projection data was acquired into a 128×128 matrix with medium energy general purpose (MEGP) collimation using a step and shoot acquisition mode, acquiring 60 projections per detector (180 degrees rotation per detector), 20 seconds per projection, with an acquisition zoom of 1.0, and a 20% (±10%) energy window centered over 208 keV.
A low-dose CT scan was performed prior to beginning the SPECT scan for attenuation correction. Sites were instructed to use the Institutional standard parameters for acquisition of the low-dose CT. Institutional standard reconstruction parameters were used. Scatter correction was required to be applied using a 20% (±10%) scatter window centered over 170 keV.
The imaging data was analyzed using Invicro's VivoQuant software, a validated software used in a 21 CFR § 11-compliant workflow. The general quantification approach was based on the principles detailed in the Medical Internal Radiation Dose (MIRD) Pamphlet No. 16, No 23, and No 26 as appropriate.
SPECT images were calibrated in units of Becquerel (Bq) using a calibration factor derived from a source of known activity, measured during site set up with the same acquisition and reconstruction parameters employed for patient imaging. A patient-specific calibration factor was also derived at each clinical time point after acquisition of the patient SPECT/CT. As a quality control measure, if the patient-specific calibration factor differed by more than 10% from the site set up calibration factor, an investigation was conducted.
Volume of interest (VOI) (kidneys, bladder, liver, lumbar vertebrae L2-L4, lacrimal glands, salivary glands [parotid and submandibular glands], and whole body) were delineated on each dataset by a trained image analyst. […] Organs were segmented either by drawing the entire contour of the organ, or by placing a sphere in a representative region of the organ and then multiplying by the organ's effective mass (based on patient's height and weight). Segmentation methods for each organ are specified in Table 3 and were consistently applied to each patient.
Clearance of the radiopharmaceutical was derived from a data-appropriate fit of each organ's TAC. Depending on the TAC's shape, the data was fitted with the sum of one, two, or three exponentials, or using a rise and fall model. Fitting was performed with in-house Python software. TIACs were calculated through analytical integration of the curve fit extrapolated to infinity. […]

[1] = Lacrimal Glands (OLINDA sphere model)

## O=C(O)CC[C@H](NC(=O)N[C@@H](CCCCNC(=O)CCCCCCC(=O)NCCCC[C@@H](NC(=O)[C@@H](Cc1ccccc1)NC(=O)[C@@H](Cc1ccc(O)c(I)c1)NC(=O)CC[C@H](C(=O)O)N1CCN(CC(=O)O)CCN(CC(=O)O)CCN(CC(=O)O)CC1)C(=O)O)C(=O)O)C(=O)O [^177Lu-PSMA-I&T, (3S,7 S,26R,29R,32R,37R)-29-benzyl-32-(4-hydroxy-3-iodobenzyl)-5,13,20,28,31,34-hexaoxo-37-(4,7,10-tris(carboxymethyl)-1,4,7,10-tetraazacyclododecan-1-yl)-4,6,12,21,27,30,33-heptaazaheptatriacontane-1,3,7,26,37-pentacarboxylic acid; lutetium-177 (III), metal not drawn]
Adrenals
  Absorbed Dose, Mean: 0.02 Gy/GBq
  Absorbed Dose, max: 0.08 Gy/GBq
  Absorbed Dose, median: 0.02 Gy/GBq
  Absorbed Dose, min: 0.01 Gy/GBq
  Absorbed Dose in Cycle 1, Mean: 0.02 Gy/GBq
  Absorbed Dose in Cycle 1, max: 0.08 Gy/GBq
  Absorbed Dose in Cycle 1, min: 0.01 Gy/GBq
Brain
  Absorbed Dose, Mean: 0.01 Gy/GBq
  Absorbed Dose, max: 0.07 Gy/GBq
  Absorbed Dose, median: 0.01 Gy/GBq
  Absorbed Dose, min: 0.00 Gy/GBq
  Absorbed Dose in Cycle 1, Mean: 0.01 Gy/GBq
  Absorbed Dose in Cycle 1, max: 0.07 Gy/GBq
  Absorbed Dose in Cycle 1, min: 0.00 Gy/GBq
Esophagus
  Absorbed Dose, Mean: 0.02 Gy/GBq
  Absorbed Dose, max: 0.07 Gy/GBq
  Absorbed Dose, median: 0.01 Gy/GBq
  Absorbed Dose, min: 0.00 Gy/GBq
  Absorbed Dose in Cycle 1, Mean: 0.01 Gy/GBq
  Absorbed Dose in Cycle 1, max: 0.07 Gy/GBq
  Absorbed Dose in Cycle 1, min: 0.00 Gy/GBq
Eyes
  Absorbed Dose, Mean: 0.01 Gy/GBq
  Absorbed Dose, max: 0.07 Gy/GBq
  Absorbed Dose, median: 0.01 Gy/GBq
  Absorbed Dose, min: 0.00 Gy/GBq
  Absorbed Dose in Cycle 1, Mean: 0.01 Gy/GBq
  Absorbed Dose in Cycle 1, max: 0.07 Gy/GBq
  Absorbed Dose in Cycle 1, min: 0.00 Gy/GBq
Gallbladder wall
  Absorbed Dose, Mean: 0.02 Gy/GBq
  Absorbed Dose, max: 0.07 Gy/GBq
  Absorbed Dose, median: 0.01 Gy/GBq
  Absorbed Dose, min: 0.00 Gy/GBq
  Absorbed Dose in Cycle 1, Mean: 0.02 Gy/GBq
  Absorbed Dose in Cycle 1, max: 0.07 Gy/GBq
  Absorbed Dose in Cycle 1, min: 0.00 Gy/GBq
Heart wall
  Absorbed Dose, Mean: 0.02 Gy/GBq
  Absorbed Dose, max: 0.07 Gy/GBq
  Absorbed Dose, median: 0.01 Gy/GBq
  Absorbed Dose, min: 0.00 Gy/GBq
  Absorbed Dose in Cycle 1, Mean: 0.01 Gy/GBq
  Absorbed Dose in Cycle 1, max: 0.07 Gy/GBq
  Absorbed Dose in Cycle 1, min: 0.00 Gy/GBq
Kidneys
  Absorbed Dose, Mean: 0.41 Gy/GBq
  Absorbed Dose, max: 0.81 Gy/GBq
  Absorbed Dose, median: 0.37 Gy/GBq
  Absorbed Dose, min: 0.17 Gy/GBq
  Absorbed Dose in Cycle 1, Mean: 0.41 Gy/GBq
  Absorbed Dose in Cycle 1, max: 0.81 Gy/GBq
  Absorbed Dose in Cycle 1, min: 0.17 Gy/GBq
[1]
  Absorbed Dose in Cycle 1, Mean: 0.39 Gy/GBq
  Absorbed Dose in Cycle 1, max: 1.19 Gy/GBq
  Absorbed Dose in Cycle 1, min: 0.04 Gy/GBq
Lacrimal Glands
  Absorbed Dose, Mean: 0.40 Gy/GBq
  Absorbed Dose, max: 1.19 Gy/GBq
  Absorbed Dose, median: 0.26 Gy/GBq
  Absorbed Dose, min: 0.04 Gy/GBq
Left colon
  Absorbed Dose, Mean: 0.47 Gy/GBq
  Absorbed Dose, max: 1.53 Gy/GBq
  Absorbed Dose, median: 0.41 Gy/GBq
  Absorbed Dose, min: 0.01 Gy/GBq
  Absorbed Dose in Cycle 1, Mean: 0.52 Gy/GBq
  Absorbed Dose in Cycle 1, max: 1.53 Gy/GBq
  Absorbed Dose in Cycle 1, min: 0.01 Gy/GBq
Liver
  Absorbed Dose, Mean: 0.04 Gy/GBq
  Absorbed Dose, max: 0.10 Gy/GBq
  Absorbed Dose, median: 0.03 Gy/GBq
  Absorbed Dose, min: 0.01 Gy/GBq
  Absorbed Dose in Cycle 1, Mean: 0.04 Gy/GBq
  Absorbed Dose in Cycle 1, max: 0.10 Gy/GBq
  Absorbed Dose in Cycle 1, min: 0.01 Gy/GBq
Lungs
  Absorbed Dose, Mean: 0.01 Gy/GBq
  Absorbed Dose, max: 0.07 Gy/GBq
  Absorbed Dose, median: 0.01 Gy/GBq
  Absorbed Dose, min: 0.00 Gy/GBq
  Absorbed Dose in Cycle 1, Mean: 0.01 Gy/GBq
  Absorbed Dose in Cycle 1, max: 0.07 Gy/GBq
  Absorbed Dose in Cycle 1, min: 0.00 Gy/GBq
Osteogenic cells
  Absorbed Dose, Mean: 0.05 Gy/GBq
  Absorbed Dose, max: 0.29 Gy/GBq
  Absorbed Dose, median: 0.02 Gy/GBq
  Absorbed Dose, min: 0.00 Gy/GBq
  Absorbed Dose in Cycle 1, Mean: 0.04 Gy/GBq
  Absorbed Dose in Cycle 1, max: 0.19 Gy/GBq
  Absorbed Dose in Cycle 1, min: 0.00 Gy/GBq
Pancreas
  Absorbed Dose, Mean: 0.02 Gy/GBq
  Absorbed Dose, max: 0.07 Gy/GBq
  Absorbed Dose, median: 0.01 Gy/GBq
  Absorbed Dose, min: 0.00 Gy/GBq
  Absorbed Dose in Cycle 1, Mean: 0.02 Gy/GBq
  Absorbed Dose in Cycle 1, max: 0.07 Gy/GBq
  Absorbed Dose in Cycle 1, min: 0.00 Gy/GBq
Prostate
  Absorbed Dose, Mean: 0.02 Gy/GBq
  Absorbed Dose, max: 0.07 Gy/GBq
  Absorbed Dose, median: 0.01 Gy/GBq
  Absorbed Dose, min: 0.01 Gy/GBq
